Reference: ChEMBL document CHEMBL4376876 (J Med Chem, 2020)

These molecules were tested on Mycobacterium tuberculosis (assay: Resistance factor, ratio of MIC for antimycobacterial activity against Mycobacterium tuberculosis H37Rv over expressing InhA to MIC for antimycobacterial activity against Mycobacterium tuberculosis H37Rv transfected with pMV261 empty vector).
Format: functional
With `CC(C)[C@H]1OC(=O)[C@H](C)[C@H](O)[C@H](Cc2cccnc2)NC(=O)[C@@H](NC(=O)c2ncccc2O)[C@@H](C)OC1=O` the Ratio was 8. `CC[C@H]1OC(=O)[C@H](C)[C@H](O)[C@H](Cc2cccnc2)NC(=O)[C@@H](NC(=O)c2ncccc2O)[C@@H](C)OC1=O` was tested, and the Ratio was over 4. Molecule `C[C@H]1OC(=O)[C@@H](Cc2ccccc2)OC(=O)[C@H](C)[C@H](O)[C@H](Cc2cccnc2)NC(=O)[C@H]1NC(=O)c1ncccc1O` has a Ratio of over 4. `NNC(=O)c1ccncc1` [ISONIAZID] showed a Ratio of 31. In the case of `CC[C@H](C)[C@H]1OC(=O)[C@H](C)[C@H](O)[C@H](Cc2cccnc2)NC(=O)[C@@H](NC(=O)c2ncccc2O)[C@@H](C)OC1=O`, the Ratio is reported as 1.
